# Test results taken from patent US12357644B2, “Acetyl salicylic acid composition for intravenous administration, its storage, production and use” (HYLORIS DEVELOPMENTS SA, priority 2022, dated 2025).
# Experiments:
# [1] = Solution pH before and after addition of ASA to medium; type: physicochemical
# Method: Prior to spray drying experiments, the solution pH of different solvents and the saturation solubility of ASA in different solvents was screened. The acidified mediums were prepared as follows:
# 8.5 ml of hydrochloric acid (about 35% v/v) was transferred into 900 ml of water and diluted to 1000 ml with water. 10.0 ml of this solution was diluted to 1000 ml with water. The pH of the solution was noted.
# 8.5 ml of hydrochloric acid (about 35% v/v) was transferred into 900 mL 96% ethanol and diluted to 1000 ml with water. 10.0 ml of this solution was diluted to 1000 ml with 96% ethanol. The pH of the solution was noted.
# 8.5 ml of hydrochloric acid (about 35% v/v) was transferred into 900 mL Tertiary butyl alcohol and diluted to 1000 ml with Tertiary butyl alcohol. 10.0 ml of this solution was diluted to 1000 ml with 96% Tertiary butyl alcohol. The pH of the solution was noted.
# 8.5 ml of hydrochloric acid (about 35% v/v) was transferred into 900 ml water and diluted to 1000 ml with water. 10.0 ml of this solution was diluted to 1000 ml with water. […] The pH of the solution was noted.
# ASA has more solubility in non-aqueous media compared to aqueous media and ASA dissolves better in ethanol compared to tertiary butyl alcohol however it also has higher salicylic acid content (Tables 6 and 7). Once it is acidified the salicylic acid levels are lowered.
# [2] = cited from earlier work
# [3] = Salicylic acid content in sample solutions kept at benchtop; type: physicochemical; conditions: for Average conc. salicylic acid: no pH adjustment; for Average conc. salicylic acid / Average conc. of salicylic acid: benchtop
# Method: In addition, storage stability screenings were conducted. The solutions prepared as previously described, were kept on a benchtop at 24+/−3° C. and 70% relative humidity. For media with no pH adjustment, the degradation of ASA is higher in ethanol as compared to the other media in the test (see Table 8). For media with pH adjustment, degradation of ASA in acidified TBA, acidified water and acidified water with mannitol were almost similar. Degradation in acidified TBA was higher than in acidified ethanol at 24+/−3° C. and 70% relative humidity (see Table 9).
# It was observed that acidified ethanol has the highest solubility and stability. […] The finding of up to 72 hours stability is critical, because it allows manipulations during the manufacturing process and a manufacturing run of up to 3 days.
# [4] = Terminal sterilization by autoclaving, degradation of ASA; type: physicochemical; conditions: autoclaving at 121° C. for 20 mins
# Method: In yet another alternative, the first component comprises an autoclaved terminally sterilized acetyl salicylic acid particulate powder. The terminally sterilized material may be obtained by autoclaving at 121° C. for 20 mins.
# Alternatively, the first component was prepared by filling acetyl salicylic acid into vials and terminally sterilizing the ASA filled vials for 20 minutes at 121° C. A skilled person would not expect that a two-component system can be based on autoclaved ASA due to an expected incompatibility with heat.
compound,measurement,setting,value
"CC(=O)Oc1ccccc1C(=O)O [ASA, Acetyl salicylic acid]",pH 48 hours after addition of ASA,"[1]; 96% Ethanol, no prior pH adjustment (pH 7.06 before)",3.09
same,pH 48 hours after addition of ASA,[1]; Acidified 96% ethanol (pH 2.30 before),2.24
same,pH 48 hours after addition of ASA,[1]; Acidified tert-butyl alcohol (pH 2.01 before),1.93
same,pH 48 hours after addition of ASA,[1]; Acidified water (0.001N HCl) (pH 2.47 before),2.37
same,pH 48 hours after addition of ASA,[1]; Acidified water + 60 g/L mannitol (pH 2.50 before),2.36
same,pH 48 hours after addition of ASA,"[1]; Milli-Q Water, no prior pH adjustment (pH 5.41 before)",2.62
same,pH 48 hours after addition of ASA,"[1]; Tert-butyl alcohol, no prior pH adjustment (pH 4.89 before)",3.40
same,pH 48 hours after addition of ASA,"[1]; Water + 60 g/L mannitol, no prior pH adjustment (pH 6.03 before)",2.61
same,solubility,[2]; above pH 5.5,above 100 mg/ml
same,solubility in water,[2]; water,about 0.3%
same,Average conc. salicylic acid,"[3]; 60 g/L mannitol, 0 hr",0.262 mg/mL
same,Average conc. salicylic acid,"[3]; 60 g/L mannitol, 72 Hrs",0.897 mg/mL
same,Average conc. salicylic acid,"[3]; 60 g/L mannitol, 6 hrs",0.285 mg/mL
same,Average conc. salicylic acid,"[3]; 60 g/L mannitol, 12 hrs",0.312 mg/mL
same,Average conc. salicylic acid,"[3]; 60 g/L mannitol, 24 hrs",0.574 mg/mL
same,Average conc. salicylic acid,"[3]; 60 g/L mannitol, 48 hrs",0.863 mg/mL
same,Average conc. of salicylic acid,"[3]; Acidified 60 g/L mannitol, 0 hr",0.153 mg/mL
same,Average conc. of salicylic acid,"[3]; Acidified 60 g/L mannitol, 72 Hrs",0.403 mg/mL
same,Average conc. of salicylic acid,"[3]; Acidified 60 g/L mannitol, 6 hrs",0.167 mg/mL
same,Average conc. of salicylic acid,"[3]; Acidified 60 g/L mannitol, 12 hrs",0.218 mg/mL
same,Average conc. of salicylic acid,"[3]; Acidified 60 g/L mannitol, 24 hrs",0.260 mg/mL
same,Average conc. of salicylic acid,"[3]; Acidified 60 g/L mannitol, 48 hrs",0.322 mg/mL
same,Average conc. of salicylic acid,"[3]; Acidified Tert-butyl alcohol, 0 hr",0.237 mg/mL
same,Average conc. of salicylic acid,"[3]; Acidified Tert-butyl alcohol, 72 Hrs",8.176 mg/mL
same,Average conc. of salicylic acid,"[3]; Acidified Tert-butyl alcohol, 6 hrs",0.388 mg/mL
same,Average conc. of salicylic acid,"[3]; Acidified Tert-butyl alcohol, 12 hrs",1.737 mg/mL
same,Average conc. of salicylic acid,"[3]; Acidified Tert-butyl alcohol, 24 hrs",3.135 mg/mL
same,Average conc. of salicylic acid,"[3]; Acidified Tert-butyl alcohol, 48 hrs",5.403 mg/mL
same,Average conc. of salicylic acid,"[3]; Acidified ethanol 96%, 0 hr",0.901 mg/mL
same,Average conc. of salicylic acid,"[3]; Acidified ethanol 96%, 72 Hrs",1.627 mg/mL
same,Average conc. of salicylic acid,"[3]; Acidified ethanol 96%, 6 hrs",0.947 mg/mL
same,Average conc. of salicylic acid,"[3]; Acidified ethanol 96%, 12 hrs",1.130 mg/mL
same,Average conc. of salicylic acid,"[3]; Acidified ethanol 96%, 24 hrs",1.280 mg/mL
same,Average conc. of salicylic acid,"[3]; Acidified ethanol 96%, 48 hrs",1.430 mg/mL
same,Average conc. of salicylic acid,"[3]; Acidified water, 0 hr",0.162 mg/mL
same,Average conc. of salicylic acid,"[3]; Acidified water, 72 Hrs",0.402 mg/mL
same,Average conc. of salicylic acid,"[3]; Acidified water, 6 hrs",0.168 mg/mL
same,Average conc. of salicylic acid,"[3]; Acidified water, 12 hrs",0.217 mg/mL
same,Average conc. of salicylic acid,"[3]; Acidified water, 24 hrs",0.269 mg/mL
same,Average conc. of salicylic acid,"[3]; Acidified water, 48 hrs",0.327 mg/mL
same,Average conc. salicylic acid,"[3]; Ethanol 96%, 0 hr",1.092 mg/mL
same,Average conc. salicylic acid,"[3]; Ethanol 96%, 72 Hrs",24.768 mg/mL
same,Average conc. salicylic acid,"[3]; Ethanol 96%, 6 hrs",1.961 mg/mL
same,Average conc. salicylic acid,"[3]; Ethanol 96%, 12 hrs",3.315 mg/mL
same,Average conc. salicylic acid,"[3]; Ethanol 96%, 24 hrs",18.682 mg/mL
same,Average conc. salicylic acid,"[3]; Ethanol 96%, 48 hrs",21.522 mg/mL
same,Average conc. salicylic acid,"[3]; Tert-butyl alcohol, 0 hr",0.543 mg/mL
same,Average conc. salicylic acid,"[3]; Tert-butyl alcohol, 72 Hrs",18.135 mg/mL
same,Average conc. salicylic acid,"[3]; Tert-butyl alcohol, 6 hrs",0.988 mg/mL
same,Average conc. salicylic acid,"[3]; Tert-butyl alcohol, 12 hrs",1.669 mg/mL
same,Average conc. salicylic acid,"[3]; Tert-butyl alcohol, 24 hrs",9.261 mg/mL
same,Average conc. salicylic acid,"[3]; Tert-butyl alcohol, 48 hrs",16.238 mg/mL
same,Average conc. salicylic acid,"[3]; Water, 0 hr",0.269 mg/mL
same,Average conc. salicylic acid,"[3]; Water, 72 Hrs",0.904 mg/mL
same,Average conc. salicylic acid,"[3]; Water, 6 hrs",0.289 mg/mL
same,Average conc. salicylic acid,"[3]; Water, 12 hrs",0.312 mg/mL
same,Average conc. salicylic acid,"[3]; Water, 24 hrs",0.574 mg/mL
same,Average conc. salicylic acid,"[3]; Water, 48 hrs",0.854 mg/mL
same,% of salicylic acid,"[3]; acidified ethanol, up to 72 hours (Limit Not more than 5%)",less than 2%
same,degradation of acetyl salicylic acid,[4],no degradation
